“Also recorded” adds a separate entry of the source.
Test system: C57BL/6J-Tyr^c-2J/c-2J mice (OCA1a model)
Experiment: Coat and ocular pigmentation, clinical examination, Tyr^c-2J/c-2J mice
Assay type: in vivo, mouse
Settings: one month
Method: Animal Husbandry and Clinical Examination. C57BL/6J mice (Stock #000664), C57BL/6JTyr^c-2J/c-2J mice (Stock #000058, MGI ID#1855985), and C57BL/6Tyr^c-h/c-h (Stock #000104, MGI ID#1855979) were obtained from the Jackson Laboratory (Bar Harbor, Me.). Mice were housed according to the institutional Animal Review Board standards with a 14 hour light/10 hour dark cycle. These studies conformed to the principles for laboratory animal research outlined by the Animal Welfare Act (NIH/HHS) and the ARVO Statement for the Use of Animals in Ophthalmic and Vision Research and were approved by the Institutional Animal Care and Use Committee of the National Eye Institute. Clinical examination and imaging of the anterior segment of mice were performed on gently-restrained, awake mice using a Haag-Streit BQ slit lamp and Imaging Module IM900® software (Haag-Streit, Inc., Mason, Ohio). […]
At the beginning of the study, baseline plasma concentrations of tyrosine, coat color (gross and microscopic), anterior segment pigment, and posterior segment pigment were documented for each mouse prior to initiating experiments. […] It is known that a possible side effect of NTBC treatment is corneal irritation, which is monitored daily. […] At the end of four weeks time, plasma tyrosine concentrations were assessed in both treated and control animals. […]

O=C1CCCC(=O)C1C(=O)c1ccc(C(F)(F)F)cc1[N+](=O)[O-] [NTBC, 2-(-2-nitro-4 trifluoromethylbenzoyl)-1,3 cyclohexanedione]
Phenotypic changes (1 mg/kg every other day by oral gavage): no phenotypic changes
Coat color, fundus pigmentation, iris transillumination (coat and ocular pigmentation) (4 mg/kg orally every other day, 4 mg/kg): no difference; also recorded: grossly unchanged

Reference: patent publication US9364448B2, “Nitisinone for treatment of oculocutaneous/ocular albinism and for increasing pigmentation” (The United States of America, as represented by the …, priority 2010, dated 2016)
